Results on two molecules are retold here after EP0403957A2, “Optical active 1,4-dihydropyridine derivates” (FUJIREBIO INC., priority 1989, dated 1990).

Where two headings read alike, the source gives them in different places.

In test [1] the test system is thoracic aortas of rabbits. Description: Test for activity of inhibiting KCl-induced contraction. Conditions: 3x10⁻⁶ M compound; 30 mM KCl; helical strips in Krebs-Henseleit solution at 37°C; determined in 60 minutes. The class given is cell-based, rabbits (Japanese white rabbit; male). As for the experimental part: Herical strips of thoracic aortas of rabbits (Japanese white rabbit; male) were mounted vertically in organ baths of Krebs-Henselit solution at 37°C for 90 minutes, and then 30 mM of KCl was added to the baths. After 30 minutes, the compound to be tested was added to the baths, and the variations in the tension were recorded by an isometric kymograph, so that the inhibitory activity of the compound was determined in 60 minutes.

The subject of test [2] is spontaneously hypertensive rats (aparalytic SHR; male). The experiment in a line: Test for hypotensive activity. Type of test: in vivo. Conditions: for HR / T 1/2 / Peak: 300 µg/kg into the abdominal aorta of SHR; for MaxΔMBP: 300 µg/kg into the abdominal aorta of SHR through a canula, blood pressure by pressure transducer; for T 1/2: half time of the hypotensive effect; for Peak: time of peak of the hypotensive effect. As for the experimental part:
The test was carried out by employing spontaneously hypertensive rats (aparalytic SHR; male) according to Nakao et al method.
300 µg/kg of the compound to be tested was administrated into the abdominal aorta of SHR through a canula (previously inserted). The blood pressures in the whole body of the rats were measured with a pressure transducer (MPU-0.5, made by Nihon Koden K.K.).

A further test concerns platelet rich plasma. The experiment in a line: Test for platelet aggregation-inhibiting activity in rabbit platelet rich plasma. Type of test: cell-based, rabbit (Japanese white; male). Conditions: Oryctolagus cuniculus, 0.5 h, 30 minutes incubation in PRP. Here is the method: The mixture was centrifuged at 1100 rpm at 20°C for 15 minutes. The upper layer is a platelet rich plasma (RRP), and the lower layer was centrifuged at 2500 rpm at 20°C for 10 minutes, so that a platelet poor plasma (PPP) was obtained.
10 µℓ of a solution of the compound to be tested with a concentration of 10⁻⁴ moℓ/ℓ was added to 200 µℓ of PRP, and the mixture was subjected to incubation for 30 minutes. To the mixture was added 10 µℓ of a platelet activating factor (PAF)(10 µg/mℓ), or arachidonic acid (AA)(1 mM at final concentration). The extent of the aggregation was measured by Agricometer (NKK, PAT-4A).

Consider `COC(=O)C1=C(C)NC(C)=C(C(=O)OC/C=C/c2ccc(Cn3ccnc3)cc2)C1c1cccc([N+](=O)[O-])c1` (single isomer, unassigned; (+)) [Example 36, (+)-3-[4-(1-imidazolylmethyl)phenyl]-2-propen-1-yl methyl-1,4-dihydro-2,6-dimethyl-4-(3-nitrophenyl)pyridine-3,5-dicarboxylate], for which the “Inhibitory Effect on KCℓ-induced contraction(%)” value in test [1] is given as 51.1 ± 11.6%. In test [2], the HR amounted to 49.0 beats/min, the MaxΔMBP is given as 51.4 mmHg, the “T 1/2” value amounted to 3.4 min and the Peak is reported as 0.9 min. Besides, in the test on platelet rich plasma (aggregation induced by platelet activating factor (PAF) 10 µg/ml, read-out: IC₅₀ (M) PAF(10 µg/ml)), the IC50 was 0.00011 M. The IC50 with platelet rich plasma (Platelet, aggregation induced by arachidonic acid (AA) 1 mM at final concentration, read-out: IC₅₀ (M) AA(1 mM)) came to 0.00014 M.
With “(-)-3-[4-(-(1-imidazolylmethyl)phenyl]-2-propen-1-yl methyl-1, 4-dihydro-2,6-dimethyl-4-(3-nitrophenyl)pyridine-3,5-dicarboxylate [Example 37]”, the “Inhibitory Effect on KCℓ-induced contraction(%)” value in test [1] is recorded as 16.8 ± 9.8%. Moreover, in test [2], the HR turned out to be 3.7 beats/min, the MaxΔMBP turned out to be 10.8 mmHg, the “T 1/2” value was 0.4 min and the Peak worked out at 0.6 min.
